From ChEMBL document CHEMBL1201862, “PubChem BioAssay data set” (2004) come the findings set out here.

For data set [1], the target named is Luciferin 4-monooxygenase (Photinus pyralis, UniProt P08659). As to the kind of experiment: firefly luciferase enzyme inhibitors, dose response, biochemical, luminescence (AID 1891).
Data set [2] can be described thus: Luminescence Cell-Based Dose Confirmation HTS to Identify Inhibitors of Platelet Dense Granule Release. [Related pubchem assays: 1663 (Primary HTS), 1678 (Summary of Project)]. It counts as functional.
The nature of data set [3]: Luminescence Cell-Based Dose Confirmation HTS to Identify Activators of 5'UTR Stem-Loop Driven Alpha-Synuclein mRNA Translation in H4 Neuroglioblastoma Cells. [Related pubchem assays: 1829 (Project Summary), 1814 (Primary HTS)]. It counts as functional.
The nature of data set [4]: Luminescence Cell-Based Dose Response HTS to Identify Activators of Luciferase Translation or Activity in H4 […] Cells. [Related pubchem assays: 1829 (Project Summary), 1814 (Primary HTS)]. It counts as functional.
Data set [5] concerns H4. As to the kind of experiment: Luminescence Cell-Based Dose Response HTS to Identify Activators of 5'UTR Stem-Loop Driven Prion Protein mRNA Translation in H4 Neuroglioblastoma Cells. [Related pubchem assays: 1829 (Project Summary), 1814 (Primary HTS)]. The note with it: Homo sapiens. It counts as functional.
Data set [6] concerns the target T1, Fatty acid synthase (Homo sapiens, UniProt P49327). Put plainly: FAS thioesterase domain inhibitors, dose response, biochemical, endpoint fluorescence intensity, uHTS hits (AID 624327).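 Also: fluorescence from hydrolysis of an O-methyl fluorescein acyl ester substrate by the enzyme.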 The format is functional.
Data set [7] concerns the target T1, Fatty acid synthase. Put plainly: FAS thioesterase domain inhibitors, dose response, biochemical, kinetic fluorescence intensity (AID 624326).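 Also: rate of fluorescence rise from hydrolysis of a fluorogenic O-methyl fluorescein ester substrate.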 The format is functional.
In data set [8] the target is T2, Heat shock factor protein 1 (Mus musculus, UniProt P38532).
T2 sequence (P38532 whole entry): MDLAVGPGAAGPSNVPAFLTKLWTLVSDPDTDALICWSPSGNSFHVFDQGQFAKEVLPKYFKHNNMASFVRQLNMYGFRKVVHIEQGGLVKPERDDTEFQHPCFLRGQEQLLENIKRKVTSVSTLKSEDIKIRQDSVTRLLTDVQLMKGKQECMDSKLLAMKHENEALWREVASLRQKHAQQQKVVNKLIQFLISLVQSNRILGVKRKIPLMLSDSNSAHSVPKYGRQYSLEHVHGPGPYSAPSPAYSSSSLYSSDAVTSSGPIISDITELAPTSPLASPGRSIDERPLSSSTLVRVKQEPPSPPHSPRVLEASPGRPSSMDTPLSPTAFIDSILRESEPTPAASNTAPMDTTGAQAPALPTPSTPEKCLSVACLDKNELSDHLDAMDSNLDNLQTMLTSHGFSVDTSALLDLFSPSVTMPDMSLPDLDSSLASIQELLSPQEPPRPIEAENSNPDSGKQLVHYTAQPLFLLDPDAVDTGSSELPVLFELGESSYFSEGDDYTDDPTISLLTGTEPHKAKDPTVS
Put plainly: inhibition of MG132-induced HSE-luciferase signal, confirmation, cell-based, NIH3T3, luminescence, dose retest (AID 2382).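 Also: NIH3T3 fibroblasts with HSF1-driven luciferase reporter stressed by proteasome inhibitor MG132; luminescence from HSF1-driven luciferase expression after 8 hours of MG132 stress.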 It counts as functional.

Data set [9] can be described thus: Luminescence Cell-Based Dose Retest to Confirm Inhibitors of Cancer Stem Cells. [Related pubchem assays (depositor defined):AID2717, AID2721]. It counts as functional. The note with it: Homo sapiens.
For data set [10], the target named is T3, Cytochrome P450 1A2 (Homo sapiens, UniProt P05177).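 Also: PubChem cytochrome P450 panel assay, CYP1A2 panel member.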
T3 sequence (P05177 whole entry): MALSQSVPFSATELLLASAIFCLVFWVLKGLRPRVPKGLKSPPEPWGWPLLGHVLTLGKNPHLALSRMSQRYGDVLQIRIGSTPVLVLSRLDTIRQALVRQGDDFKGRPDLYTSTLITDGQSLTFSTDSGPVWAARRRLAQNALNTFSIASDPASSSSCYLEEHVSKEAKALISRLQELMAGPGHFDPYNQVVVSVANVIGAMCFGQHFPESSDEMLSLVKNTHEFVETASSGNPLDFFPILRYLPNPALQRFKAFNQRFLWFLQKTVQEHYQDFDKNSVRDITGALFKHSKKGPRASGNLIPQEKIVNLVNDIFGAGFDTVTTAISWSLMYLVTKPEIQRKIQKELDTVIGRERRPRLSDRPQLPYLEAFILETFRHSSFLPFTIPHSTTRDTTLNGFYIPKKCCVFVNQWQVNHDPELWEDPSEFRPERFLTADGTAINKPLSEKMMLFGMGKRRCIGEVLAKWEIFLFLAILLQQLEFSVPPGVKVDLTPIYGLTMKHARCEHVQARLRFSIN

The target of data set [11] is T4, Corticotropin-releasing factor receptor 2/Corticotropin-releasing factor-binding protein (Homo sapiens, UniProt P24387+Q13324).
T4 sequence (Q13324 whole entry): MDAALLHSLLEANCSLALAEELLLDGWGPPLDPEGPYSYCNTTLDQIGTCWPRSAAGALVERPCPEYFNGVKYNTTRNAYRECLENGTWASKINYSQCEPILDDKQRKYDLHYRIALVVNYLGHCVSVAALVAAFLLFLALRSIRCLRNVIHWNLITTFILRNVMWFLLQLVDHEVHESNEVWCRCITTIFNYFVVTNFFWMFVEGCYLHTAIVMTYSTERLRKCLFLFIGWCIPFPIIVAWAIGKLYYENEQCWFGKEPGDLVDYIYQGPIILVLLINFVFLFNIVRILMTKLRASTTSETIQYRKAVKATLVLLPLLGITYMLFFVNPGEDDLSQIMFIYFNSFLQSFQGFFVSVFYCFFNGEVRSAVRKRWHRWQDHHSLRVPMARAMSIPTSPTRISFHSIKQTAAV
T4 sequence (P24387 whole entry): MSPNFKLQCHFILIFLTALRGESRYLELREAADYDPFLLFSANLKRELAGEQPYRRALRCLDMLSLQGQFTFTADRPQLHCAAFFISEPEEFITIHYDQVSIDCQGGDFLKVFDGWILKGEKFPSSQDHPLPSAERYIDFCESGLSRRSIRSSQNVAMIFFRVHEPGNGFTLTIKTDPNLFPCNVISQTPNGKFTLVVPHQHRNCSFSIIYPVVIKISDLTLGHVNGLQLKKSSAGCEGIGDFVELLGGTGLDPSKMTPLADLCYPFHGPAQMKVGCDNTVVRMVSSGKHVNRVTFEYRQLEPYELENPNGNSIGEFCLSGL
As to the kind of experiment: Dose Response confirmation of uHTS hits for small molecule antagonists of the CRF-binding protein and CRF-R2 receptor complex. The format is functional. The note with it: read-out: IC50_Mean.

In data set [12] the target is T4, Corticotropin-releasing factor receptor 2/Corticotropin-releasing factor-binding protein. As to the kind of experiment: activators of CRF receptor 2 with binding protein – uHTS hits, confirmation (AID 602473). The format is functional. The note with it: read-out: EC50_Mean.
Data set [13] addresses Cytochrome P450 2C19 (Homo sapiens, UniProt P33261). As to the kind of experiment: Cytochrome panel assay with activity outcomes. Panel member name: p450-cyp2c19 Compounds with AC50 equal or less than 10 uM are considered active. It counts as functional.
Data set [14] can be described thus: HEp-2 cell cytotoxicity, dose response, cytotoxicity control for RSV inhibitor project, HTS (AID 2410). It counts as functional. The note with it: human respiratory syncytial virus.

As a reminder, the AC50 is the midpoint of the concentration-response curve, whichever way the signal moves. One may read the CC50 as the concentration that lowers cell viability or growth by half.

Calls of active or inactive are those of the source. A value given as a limit tells only on which side of the number the result lay.

T1 sequence (P49327 whole entry, the tested form may be a part): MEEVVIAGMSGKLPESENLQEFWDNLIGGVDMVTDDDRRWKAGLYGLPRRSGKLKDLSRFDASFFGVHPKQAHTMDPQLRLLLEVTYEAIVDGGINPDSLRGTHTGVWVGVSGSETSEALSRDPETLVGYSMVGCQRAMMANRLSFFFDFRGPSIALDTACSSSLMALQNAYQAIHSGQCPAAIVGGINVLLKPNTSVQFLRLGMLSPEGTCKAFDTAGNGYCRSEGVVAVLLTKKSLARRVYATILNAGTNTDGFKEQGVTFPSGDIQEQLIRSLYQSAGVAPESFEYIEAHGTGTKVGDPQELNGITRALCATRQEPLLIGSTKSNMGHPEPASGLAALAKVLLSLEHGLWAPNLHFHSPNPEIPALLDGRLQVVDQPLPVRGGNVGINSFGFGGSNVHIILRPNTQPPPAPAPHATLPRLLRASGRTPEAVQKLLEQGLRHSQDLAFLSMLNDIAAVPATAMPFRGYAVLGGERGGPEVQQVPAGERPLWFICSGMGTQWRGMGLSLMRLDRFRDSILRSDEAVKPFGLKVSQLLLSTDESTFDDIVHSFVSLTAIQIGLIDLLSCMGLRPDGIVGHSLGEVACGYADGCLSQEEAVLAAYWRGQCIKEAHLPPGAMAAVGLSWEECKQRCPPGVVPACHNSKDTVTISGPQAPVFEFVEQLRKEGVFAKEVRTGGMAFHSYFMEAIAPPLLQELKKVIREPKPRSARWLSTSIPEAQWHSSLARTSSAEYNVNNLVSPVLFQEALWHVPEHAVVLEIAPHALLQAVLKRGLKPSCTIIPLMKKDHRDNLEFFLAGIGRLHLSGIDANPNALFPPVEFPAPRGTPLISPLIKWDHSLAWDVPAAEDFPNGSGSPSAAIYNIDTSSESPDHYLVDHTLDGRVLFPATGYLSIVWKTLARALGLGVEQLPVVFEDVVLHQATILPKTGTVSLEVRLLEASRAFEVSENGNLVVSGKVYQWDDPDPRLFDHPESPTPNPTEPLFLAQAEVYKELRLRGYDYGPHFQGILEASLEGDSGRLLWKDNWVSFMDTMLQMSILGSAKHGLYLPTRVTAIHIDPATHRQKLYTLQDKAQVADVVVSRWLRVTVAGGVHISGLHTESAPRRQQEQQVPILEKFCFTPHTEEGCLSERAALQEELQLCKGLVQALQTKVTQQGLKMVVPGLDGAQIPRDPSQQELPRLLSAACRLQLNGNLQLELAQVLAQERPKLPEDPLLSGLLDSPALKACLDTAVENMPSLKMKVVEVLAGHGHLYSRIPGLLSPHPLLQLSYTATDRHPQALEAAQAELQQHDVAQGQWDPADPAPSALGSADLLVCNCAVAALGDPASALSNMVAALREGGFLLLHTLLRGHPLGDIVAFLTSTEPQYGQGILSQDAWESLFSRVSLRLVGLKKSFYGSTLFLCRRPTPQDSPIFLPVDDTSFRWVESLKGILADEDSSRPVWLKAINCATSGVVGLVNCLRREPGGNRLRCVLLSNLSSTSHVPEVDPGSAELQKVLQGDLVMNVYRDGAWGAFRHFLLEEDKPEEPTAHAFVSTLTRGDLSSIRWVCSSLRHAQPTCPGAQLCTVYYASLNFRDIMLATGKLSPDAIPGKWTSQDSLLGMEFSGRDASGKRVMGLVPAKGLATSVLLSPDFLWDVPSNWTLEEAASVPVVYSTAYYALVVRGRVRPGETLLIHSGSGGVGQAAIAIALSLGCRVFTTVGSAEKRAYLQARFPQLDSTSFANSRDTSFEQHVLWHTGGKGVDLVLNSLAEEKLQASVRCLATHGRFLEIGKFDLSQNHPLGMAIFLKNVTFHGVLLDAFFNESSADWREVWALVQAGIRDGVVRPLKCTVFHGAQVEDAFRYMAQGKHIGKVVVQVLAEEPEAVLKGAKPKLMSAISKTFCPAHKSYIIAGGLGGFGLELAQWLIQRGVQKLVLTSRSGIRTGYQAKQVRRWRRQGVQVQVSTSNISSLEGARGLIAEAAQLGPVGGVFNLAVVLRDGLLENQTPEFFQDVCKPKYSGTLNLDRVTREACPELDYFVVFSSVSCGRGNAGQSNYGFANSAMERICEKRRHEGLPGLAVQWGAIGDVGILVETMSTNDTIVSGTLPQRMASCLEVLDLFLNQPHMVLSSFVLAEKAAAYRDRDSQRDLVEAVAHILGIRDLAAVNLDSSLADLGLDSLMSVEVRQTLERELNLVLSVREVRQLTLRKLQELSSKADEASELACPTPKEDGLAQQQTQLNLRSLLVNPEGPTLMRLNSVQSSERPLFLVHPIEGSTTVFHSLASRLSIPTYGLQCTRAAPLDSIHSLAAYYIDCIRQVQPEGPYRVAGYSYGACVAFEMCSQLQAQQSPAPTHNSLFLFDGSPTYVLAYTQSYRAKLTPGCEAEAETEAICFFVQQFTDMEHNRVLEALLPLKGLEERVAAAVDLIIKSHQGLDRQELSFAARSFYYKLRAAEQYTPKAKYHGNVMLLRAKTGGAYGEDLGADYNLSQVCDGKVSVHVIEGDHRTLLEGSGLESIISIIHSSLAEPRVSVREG
Chain of Luciferin 4-monooxygenase (P08659 whole entry): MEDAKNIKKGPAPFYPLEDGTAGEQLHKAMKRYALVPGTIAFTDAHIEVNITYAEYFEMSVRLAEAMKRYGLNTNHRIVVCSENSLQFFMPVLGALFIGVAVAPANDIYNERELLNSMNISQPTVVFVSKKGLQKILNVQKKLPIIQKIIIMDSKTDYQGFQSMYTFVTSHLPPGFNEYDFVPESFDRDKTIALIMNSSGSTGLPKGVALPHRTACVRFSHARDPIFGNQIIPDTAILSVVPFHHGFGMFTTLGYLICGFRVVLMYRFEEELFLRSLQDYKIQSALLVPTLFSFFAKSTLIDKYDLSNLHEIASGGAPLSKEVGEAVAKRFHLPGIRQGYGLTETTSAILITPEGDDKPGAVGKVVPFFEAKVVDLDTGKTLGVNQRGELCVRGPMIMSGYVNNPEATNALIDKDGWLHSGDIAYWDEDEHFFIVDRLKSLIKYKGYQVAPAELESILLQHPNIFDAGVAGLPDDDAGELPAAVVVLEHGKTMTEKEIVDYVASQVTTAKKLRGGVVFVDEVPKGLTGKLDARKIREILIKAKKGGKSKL
Chain of Cytochrome P450 2C19 (P33261 whole entry): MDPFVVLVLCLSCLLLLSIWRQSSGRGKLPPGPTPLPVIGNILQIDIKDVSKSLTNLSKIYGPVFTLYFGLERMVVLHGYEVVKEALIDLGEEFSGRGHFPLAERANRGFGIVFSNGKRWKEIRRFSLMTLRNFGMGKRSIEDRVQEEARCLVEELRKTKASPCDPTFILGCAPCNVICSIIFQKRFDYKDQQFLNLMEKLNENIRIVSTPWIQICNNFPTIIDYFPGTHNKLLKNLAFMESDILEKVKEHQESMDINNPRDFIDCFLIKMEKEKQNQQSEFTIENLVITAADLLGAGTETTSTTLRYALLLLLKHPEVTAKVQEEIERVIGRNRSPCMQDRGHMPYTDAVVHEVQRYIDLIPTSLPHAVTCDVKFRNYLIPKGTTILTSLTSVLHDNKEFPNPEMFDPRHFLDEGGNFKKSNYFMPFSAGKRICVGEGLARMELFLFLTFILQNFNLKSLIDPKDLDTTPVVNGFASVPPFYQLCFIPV

`Cc1cc(C)c2cc(CN(Cc3ccco3)C(=O)NCc3ccccc3)c(O)nc2c1`: the EC50 in [1] and in [2] was > 112 µM (not active) in each case.
Turning to `CCOc1ccc2[nH]c(SCC3CC3(Cl)Cl)nc2c1` (centres undefined), the EC50 was 0.506 µM (active) in data set [3], 29.7 µM (active) in [4] and 30.2 µM (active) in [5].
Regarding `CCn1cc(C(=O)NCc2ccco2)c(=O)c2cc(S(=O)(=O)N3CCC(C)CC3)ccc21`, the IC50 in data set [6] is 2.6 µM (active); in data set [7], 3.21 µM (active).
`Cc1ccc(CN(C(=O)c2csnn2)C(C(=O)NC2CCCC2)c2ccco2)cc1` (centres undefined): the EC50 in data set [1] and in data set [2] was > 112 µM (not active) throughout.
On to `O=C(COC(=O)c1ccccc1-n1cnnn1)c1ccc(F)cc1`, for which the EC50 in [3] was 4.44 µM (active); in [4], 7.61 µM (active); in [5], 31.3 µM (active); in data set [8] it was 50.2 µM (active).
In the case of `CCOC(=O)c1c(NC(=O)/C=C/c2ccc3c(c2)OCO3)sc(C)c1CC`, the EC50 in data set [1] and in data set [2] was > 112 µM (not active) in each case. The results for the AC50 in [9] and in [10] were 1.04 µM (active) and 12.6 µM (inconclusive), respectively.
Regarding `Cn1c(=O)c2cc3ccc(Cl)cc3nc2n(C)c1=O`, the IC50 in data set [11] was > 47.1 µM (inactive). Also, the EC50 in data set [12] is > 53 µM (inactive).
In the case of `Cc1nc(S(=O)(=O)N2CCOCC2)c(C#N)c(C)c1Cl`, the EC50 in [3] was 10.7 µM (active); in [4], 55.7 µM (active); in [5] it was > 120 µM (not active). For the same compound, the AC50 entry was “inconclusive” in data set [13] and 1 µM (inconclusive) in data set [10].
For `CCOC(=O)C1CCN(C(=O)CCc2nnc3ccc(NCc4ccco4)nn23)CC1`, the EC50 in data set [1] and in [2] was > 112 µM (not active) in each case.
With `CCCCOc1ccc2c(c1)/C(=C(\C(Cl)=C(Cl)Cl)[N+](=O)[O-])N2`, the IC50 in [11] was > 47.1 µM (inactive). In addition, in data set [12], the EC50 was 37.9 µM (active).
`[O-][n+]1cc(-c2cc3ccccc3o2)[n+]([O-])c2c1CCCC2`: the EC50 was > 60 µM (not active) in data set [3], 8.68 µM (active) in data set [4] and 2.05 µM (active) in data set [5].
For the compound `O=C(CN1C(=O)NC2(CCCCCC2)C1=O)c1ccccc1`, the EC50 in data set [1] and in data set [2] was > 112 µM (not active) throughout.
As for `CCNc1ccc(S(=O)(=O)N(C)C)cc1NCC(=O)Nc1ccc(F)c(Cl)c1`, the IC50 was 12.4 µM (active) in data set [6] and 18.2 µM (active) in data set [7].
With `CCOc1ccc(CNC(=O)CCC(=O)N2Cc3cccc(OC)c3Oc3ncccc32)cc1`, in data set [11], the IC50 was > 47.1 µM (inactive). Moreover, the EC50 in data set [12] was > 53 µM (inactive).
On to `COc1ccc(OC)c(NC(=O)CS(=O)(=O)Cc2nc(-c3ccccc3C)oc2C)c1`, for which the EC50 in data set [1] and in [2] was > 112 µM (not active) throughout.
As to `COc1ccc(/C=C/C(=O)NC(=S)Nc2ccc(S(=O)(=O)Nc3cc(OC)ncn3)cc2)cc1`, in data set [11], the IC50 was > 47.1 µM (inactive). Besides, the EC50 in [12] was > 53 µM (inactive).
`O=C(CSc1cn(Cc2ccccc2)c2ccccc12)N1CCOCC1`: the EC50 in data set [3] is 20.9 µM (active); in [4], 19.8 µM (active); in [5], 16.8 µM (active).
The corresponding values for `Cc1ccc(C(=O)Nc2ccnc(-c3cccnc3)n2)cc1` are 13.3 µM (active), 16.1 µM (active) and 15.4 µM (active).
As for `CC(=O)c1c(C)nc2nonc2c1N`, the EC50 was > 112 µM (not active) in [1] and 26.6 µM (active) in data set [2].
For the compound `C[C@]12CCC(=O)C=C1CC[C@@H]1[C@@H]2[C@@H](O)C[C@]2(C=O)[C@@H](C(=O)CO)CC[C@@H]12` [ALDOSTERONE], the EC50 in [3], in data set [4] and in data set [5] was > 120 µM (not active) in each case.
As for `Cc1cc(/C(O)=C(/C([S-])=Nc2ccc(F)cc2)[n+]2ccccc2)c(C)n1-c1ccc(F)cc1`, the results for the EC50 in data set [3], in [4] and in data set [5] were > 120 µM (not active), 16.1 µM (active) and 21.1 µM (active), respectively.
Consider `CCCCN(C=O)c1c(CC)nc2c(OCc3ccc(Cl)cc3Cl)cccn12`, for which the IC50 in data set [6] is 6.01 µM (active); in [7] it was 8.19 µM (active).
In the case of `COc1ccc(NC(=O)c2nc3nc(C)cc(C(F)F)n3n2)cc1OC`, the EC50 in [1] is 18.9 µM (active); in data set [2], > 112 µM (not active).
Regarding `O=C(COC(=O)c1cc(F)c(F)cc1Cl)NC1CCCCCC1`, the IC50 in data set [6] was 13.1 µM (active); in [7], 6.86 µM (active).
With `Cn1sc(NC(=O)c2cccc(Cl)c2)nc1=O`, the EC50 in data set [3] was 12.8 µM (active); in data set [4], 7.11 µM (active); in [5] it was > 120 µM (not active).
In the case of `CC(C)(C)c1ccc(COC(=O)CN2C(=O)NC3(CCCC3)C2=O)cc1`, the IC50 is 4.84 µM (active) in [6] and 5.17 µM (active) in [7].
In the case of `COc1ccc(-c2c(C#Cc3ccccc3)c3ccccc3n2C)cc1`, the CC50 in [14] is 44 µM (active). Besides, the values for the EC50 in data set [3], in data set [4] and in [5] were 19.6 µM (active), 22.1 µM (active) and 43.1 µM (active), respectively.
Consider `CCCc1cc(O)nc(SCC(=O)N(CCC#N)c2ccc3c(c2)OCCO3)n1`, for which the IC50 in data set [11] is > 47.1 µM (inactive). Also, in data set [12], the EC50 was > 53 µM (inactive).
The corresponding values for `CCc1ccc(NC(=O)CSc2nc(N)c(NC(=O)c3ccc(F)c(F)c3)c(O)n2)cc1` are > 47.1 µM (inactive) and > 53 µM (inactive).
